Assay results taken from patent US9351983B2, “Use of glycerophosphoinositols for the treatment of septic shock” (CONSIGLIO NAZIONALE DELLE RICERCHE, priority 2012, dated 2016).

Legend:
Assay type in all cases: cell-based, human
[1] = tested on: ERK1/2; assay: Western blotting of phosphorylated ERK1/2 in LPS-stimulated monocytes; details: 300 μM, 0.1 μg/ml LPS for 1 h
Protocol: Monocytes from healthy donors were incubated at 37° C. for 20 min without or with 300 μM GroPIns or GroPIns4P, and for an additional 1 h in the absence and presence of 0.1 μg/ml LPS from E. coli. Resentative Western blots are shown, as resolved using 10% SDS-PAGE, showing phosphorylated (p-) and total levels of p38 and ERK1/2. All of the blots were representative of at least three independent experiments.
(§1) Protein extracts were analysed by Western blotting by the following procedures. The nitrocellulose filters containing the proteins of interest were incubated in the blocking solution for Western blotting plus 3% bovine serum albumin (BSA) or 5% milk powder (Fluka, Switzerland) for 1 h at room temperature, and then with the primary antibody diluted to its working concentration (see Table 2) in the blocking solution for Western blotting (plus BSA or milk powder). After a 2-4 h incubation at room temperature, or an overnight (O/N) incubation at 4° C., the antibody was removed and the strips were washed twice in Tween®/Tris-buffered salt solution (TTBS), for 15 min each. […] After washing the strips were incubated with the enhanced luminescence (ECL) reagents (Amersham Pharmacia Biotech, NJ, USA), according to the manufacturer instructions, and protein signals were detect by autoradiography using Kodak film.

[2] = tested on: LPS-mediated gene transcription of IL-1β; assay: Real-time RT-PCR of IL-1β mRNA in LPS-stimulated monocytes; details: 300 μM, 0.1 μg/ml LPS for 1.5 h or 24 h
Protocol: (§2) FIG. 4—The glycerophosphoinositols inhibit LPS-mediated gene transcription of TNFα, IL-1β and COX-2. Human monocytes were purified from peripheral blood and incubated at 37° C. for 20 min without or with 300 μM GroPIns or GroPIns4P, and for an additional 1.5 h or 24 h in the absence and presence of 0.1 μg/ml LPS from E. coli. At each time point, RNA was extracted and converted to cDNA for real-time PCR analysis of TNFα, IL-1β and COX-2. Each sample was measured in triplicate and the data were calculated using the delta-delta method (2-DDCT). Transcription of the house-keeping gene GAPDH was used to normalise the data. Measurements of mRNA levels were expressed as fold-increase over the respective control (unstimulated) cells, and are means (±SD) of triplicates from one representative experiment of 4 experiments performed with cells from different donors. Asterisks indicate statistically significant differences (*p<0.0485; **p<0.0092).
(§3) One μg total RNA (extracted through thiocyanate/caesium chloride method) was converted to cDNA using Moloney murine leukaemia virus reverse transcriptase (Applied Biosystems, Italy). […] Each sample was measured in triplicate and the data were analysed with the SDS 2.0 software (Applied Biosystems, Italy) by the delta-delta method (2-DDCT) for comparing relative expression results. […]

[3] = tested on: LPS-mediated gene transcription of TNFα; assay: Real-time RT-PCR of TNFα mRNA in LPS-stimulated monocytes; details: 300 μM, 0.1 μg/ml LPS for 1.5 h or 24 h
Protocol: as §2, §3

[4] = tested on: LPS-induced degradation of I-κBα; assay: Western blotting of I-κBα in LPS-stimulated monocytes; details: 300 μM, 0.1 μg/ml LPS for 1 h
Protocol: Monocytes were incubated at 37° C. for 20 min without or with 300 μM GroPIns or GroPIns4P, and for a further 1 h in the absence and presence of 0.1 μg/ml LPS. After stimulation, the cells were lysed and expression levels of I-κBα were analysed. Proteins were resolved using 10% SDS-PAGE and were probed by Western blotting, using a polyclonal anti-I-κBα antibody. The data are representative of four experiments performed with monocytes isolated from peripheral blood of different donors.
as §1

Row | SMILES | phosphorylation level of ERK1/2 [1] | effect on LPS-induced IL-1β mRNA expression [2] | effect on LPS-induced TNFα mRNA expression [3] | effect on LPS-induced degradation of I-κBα [4]
1 | O=P(O)(O)OC1[C@@H](O)[C@H](O)C(OP(=O)(O)OCC(O)CO)[C@@H](O)[C@H]1O (some centres unmarked) [GroPIns4P, glycerophosphoinositol 4-phosphate] | did not affect the phosphorylation levels | inhibited the effects of LPS on expression of all of the genes analysed | inhibited the effects of LPS on expression of all of the genes analysed | did not affect this LPS activity
2 | O=P(O)(OCC(O)CO)OC1C(O)C(O)C(O)C(O)C1O (centres unmarked) [GroPIns, glycerophosphoinositol] | did not affect the phosphorylation levels | inhibited the effects of LPS on expression of all of the genes analysed | inhibited the effects of LPS on expression of all of the genes analysed | did not affect this LPS activity
